Measurements reported in patent publication US10399940B2, “Substituted pyrrolidines and methods of use” (AbbVie S.à.r.l., priority 2016, dated 2019).
Read-outs that look alike come from different tables or passages of the source.

Target: T1, F508delCFTR (Homo sapiens, UniProt P13569, DEL508-508)
T1 construct: expressed in transfected cells; host or cells: CFBE41o- (human lung derived epithelial cell line), doxycycline-inducible expression
Assay: Cell Surface Expression-Horse Radish Peroxidase (CSE-HRP) assay
Format: cell-based
Settings: CFBE41o-F508delCFTR-HRP cells; for Maximum % activity (with co-corrector): with co-corrector (2 μM); for Maximum % activity (with co-corrector) / Maximum % activity (without co-corrector): normalized to on-plate positive control, highest concentration 20 μM
Outline: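 CFBE41o- cells expressed F508delCFTR with HRP in the fourth exofacial loop, induced by 0.5 μg/mL doxycycline for 72 h at 37 °C. Compounds alone or with 2 μM co-corrector ran 18–24 h at 33 °C, 8-point 3-fold from 20 μM. Washed-cell luminol luminescence was normalized to DMSO and positive control, fitted sigmoidally for EC50 (three plates).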

[1] = test compound without co-corrector, 18-24 hours at 33° C., read-out: EC50 (without co-corrector)
[2] = with co-corrector (2 μM of 3-[(2R,4R)-4-({[1-(2,2-difluoro-1,3-benzodioxol-5-yl)cyclopropyl]carbonyl}amino)-7-methoxy-3,4-dihydro-2H-chromen-2-yl]benzoic acid), read-out: EC50 (with co-corrector)

T1 sequence (P13569 with tags, fused parts or gaps DEL508-508): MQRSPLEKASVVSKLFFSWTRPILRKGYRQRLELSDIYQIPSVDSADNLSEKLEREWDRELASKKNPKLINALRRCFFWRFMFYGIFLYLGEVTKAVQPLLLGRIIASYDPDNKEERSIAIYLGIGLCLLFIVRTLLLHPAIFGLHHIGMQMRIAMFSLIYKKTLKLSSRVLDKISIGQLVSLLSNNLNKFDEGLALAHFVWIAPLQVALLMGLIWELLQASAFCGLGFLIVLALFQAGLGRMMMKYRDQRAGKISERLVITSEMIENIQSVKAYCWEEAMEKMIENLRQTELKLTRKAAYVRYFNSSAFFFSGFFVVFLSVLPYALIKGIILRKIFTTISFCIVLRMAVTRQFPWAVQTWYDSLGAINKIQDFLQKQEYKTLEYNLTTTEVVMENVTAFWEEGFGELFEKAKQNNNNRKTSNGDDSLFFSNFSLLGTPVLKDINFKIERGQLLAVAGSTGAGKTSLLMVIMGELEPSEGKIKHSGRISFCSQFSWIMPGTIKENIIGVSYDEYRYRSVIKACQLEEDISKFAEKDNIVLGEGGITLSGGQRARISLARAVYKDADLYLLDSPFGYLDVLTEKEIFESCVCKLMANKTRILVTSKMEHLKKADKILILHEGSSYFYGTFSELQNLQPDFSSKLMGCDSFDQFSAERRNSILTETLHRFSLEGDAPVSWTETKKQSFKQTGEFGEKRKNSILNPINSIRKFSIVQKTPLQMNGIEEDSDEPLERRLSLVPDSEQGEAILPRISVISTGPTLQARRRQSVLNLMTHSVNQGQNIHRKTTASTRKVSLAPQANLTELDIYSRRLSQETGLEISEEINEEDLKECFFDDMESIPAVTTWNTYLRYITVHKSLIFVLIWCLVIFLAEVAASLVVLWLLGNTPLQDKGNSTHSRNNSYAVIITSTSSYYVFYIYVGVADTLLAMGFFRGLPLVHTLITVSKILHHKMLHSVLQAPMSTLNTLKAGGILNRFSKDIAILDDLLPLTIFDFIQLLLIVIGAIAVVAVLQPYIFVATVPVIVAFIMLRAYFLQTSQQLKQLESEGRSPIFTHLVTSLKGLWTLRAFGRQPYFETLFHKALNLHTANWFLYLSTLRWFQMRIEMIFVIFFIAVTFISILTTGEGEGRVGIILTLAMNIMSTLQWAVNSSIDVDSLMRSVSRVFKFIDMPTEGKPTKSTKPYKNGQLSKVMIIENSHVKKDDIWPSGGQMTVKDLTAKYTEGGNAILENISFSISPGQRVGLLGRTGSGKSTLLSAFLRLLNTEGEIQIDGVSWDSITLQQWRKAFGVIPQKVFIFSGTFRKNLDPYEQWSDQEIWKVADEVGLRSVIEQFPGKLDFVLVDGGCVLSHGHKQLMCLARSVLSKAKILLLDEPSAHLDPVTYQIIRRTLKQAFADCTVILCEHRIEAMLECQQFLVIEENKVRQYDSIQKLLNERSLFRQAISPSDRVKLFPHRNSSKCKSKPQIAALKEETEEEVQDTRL

Row | SMILES | EC50 [1] [nM] | EC50 [2] [nM] | Maximum % activity (with co-corrector) | Maximum % activity (without co-corrector)
1 | COc1ncc(C(C)(C)C)cc1CO[C@H]1[C@H](C(C)(C)C)[C@@H](C(=O)O)N(C(=O)OC(C)C)[C@H]1c1cccc(Cl)c1 [Example 80, (2S,3R,4S,5S)-3-tert-butyl-4-[(5-tert-butyl-2-methoxypyridin-3-yl)methoxy]-5-(3-chlorophenyl)-1-{[(propan-2-yl)oxy]carbonyl}pyrrolidine-2-carboxylic acid] | 1000 to 10000 | 1000 to 10000 | ++ (≥150 and <350) | + (<100)
2 | COc1ncc(N2CCCCC2)cc1CO[C@H]1[C@H](C(C)(C)C)[C@@H](C(=O)O)N(C(=O)OC(C)C)[C@H]1c1ccccc1 [Example 81, (2S,3R,4S,5S)-3-tert-butyl-4-{[2-methoxy-5-(piperidin-1-yl)pyridin-3-yl]methoxy}-5-phenyl-1-{[(propan-2-yl)oxy]carbonyl}pyrrolidine-2-carboxylic acid] | 1000 to 10000 | 1000 to 10000 | ++ (≥150 and <350) | + (<100)
3 | COc1ncc(N2CCCC2)cc1CO[C@H]1[C@H](C(C)(C)C)[C@@H](C(=O)O)N(C(=O)OC(C)C)[C@H]1c1ccccc1 [Example 82, (2S,3R,4S,5S)-3-tert-butyl-4-{[2-methoxy-5-(pyrrolidin-1-yl)pyridin-3-yl]methoxy}-5-phenyl-1-{[(propan-2-yl)oxy]carbonyl}pyrrolidine-2-carboxylic acid] | 1000 to 10000 | 1000 to 10000 | ++ (≥150 and <350) | + (<100)
4 | COc1ncc(C(F)(F)F)cc1CO[C@H]1[C@H](C(C)(C)C)[C@@H](C(=O)O)N(C(=O)OC(C)C)[C@H]1c1ccccc1C [Example 83, (2S,3R,4S,5S)-3-tert-butyl-4-{[2-methoxy-5-(trifluoromethyl)pyridin-3-yl]methoxy}-5-(2-methylphenyl)-1-{[(propan-2-yl)oxy]carbonyl}pyrrolidine-2-carboxylic acid] | 1000 to 10000 | < 1000 | +++ (≥350) | ++ (≥100 and <200)
5 | COc1ncc(N2CC(F)(F)C2)cc1CO[C@H]1[C@H](C(C)(C)C)[C@@H](C(=O)O)N(C(=O)OC(C)C)[C@H]1c1ccccc1 [Example 84, (2S,3R,4S,5S)-3-tert-butyl-4-{[5-(3,3-difluoroazetidin-1-yl)-2-methoxypyridin-3-yl]methoxy}-5-phenyl-1-{[(propan-2-yl)oxy]carbonyl}pyrrolidine-2-carboxylic acid] | 1000 to 10000 | 1000 to 10000 | ++ (≥150 and <350) | + (<100)
6 | COc1ncc(N2CCC(F)(F)C2)cc1CO[C@H]1[C@H](C(C)(C)C)[C@@H](C(=O)O)N(C(=O)OC(C)C)[C@H]1c1ccccc1 [Example 85, (2S,3R,4S,5S)-3-tert-butyl-4-{[5-(3,3-difluoropyrrolidin-1-yl)-2-methoxypyridin-3-yl]methoxy}-5-phenyl-1-{[(propan-2-yl)oxy]carbonyl}pyrrolidine-2-carboxylic acid] | 1000 to 10000 | 1000 to 10000 | ++ (≥150 and <350) | + (<100)
7 | COc1ncc(C(F)(F)F)cc1CO[C@H]1[C@H](C(C)(C)C)[C@@H](C(=O)O)N(C(=O)OC(C)C)[C@H]1c1ccccc1Br [Example 86, (2S,3R,4S,5S)-5-(2-bromophenyl)-3-tert-butyl-4-{[2-methoxy-5-(trifluoromethyl)pyridin-3-yl]methoxy}-1-{[(propan-2-yl)oxy]carbonyl}pyrrolidine-2-carboxylic acid] | 1000 to 10000 | < 1000 | +++ (≥350) | ++ (≥100 and <200)
8 | COc1ncc(C(F)(F)F)cc1CO[C@H]1[C@H](C(C)(C)C)[C@@H](C(=O)O)N(C(=O)OC(C)C)[C@H]1c1ccccc1C(C)C [Example 87, (2S,3R,4S,5S)-3-tert-butyl-4-{[2-methoxy-5-(trifluoromethyl)pyridin-3-yl]methoxy}-1-{[(propan-2-yl)oxy]carbonyl}-5-[2-(propan-2-yl)phenyl]pyrrolidine-2-carboxylic acid] | 1000 to 10000 | 1000 to 10000 | +++ (≥350) | ++ (≥100 and <200)
9 | COc1ncc(C(F)(F)F)cc1CO[C@H]1[C@H](C(C)(C)C)[C@@H](C(=O)O)N(C(=O)[C@@H]2CCCO2)[C@H]1c1ccccc1 [Example 88, (2S,3R,4S,5S)-3-tert-butyl-4-{[2-methoxy-5-(trifluoromethyl)pyridin-3-yl]methoxy}-1-[(2S)-oxolane-2-carbonyl]-5-phenylpyrrolidine-2-carboxylic acid] | 1000 to 10000 | < 1000 | +++ (≥350) | ++ (≥100 and <200)
10 | COc1ncc(C(F)(F)F)cc1CO[C@H]1[C@H](C(C)(C)C)[C@@H](C(=O)O)N(C(=O)[C@@H]2CCCCO2)[C@H]1c1ccccc1 [Example 89, (2S,3R,4S,5S)-3-tert-butyl-4-{[2-methoxy-5-(trifluoromethyl)pyridin-3-yl]methoxy}-1-[(2S)-oxane-2-carbonyl]-5-phenylpyrrolidine-2-carboxylic acid] | 1000 to 10000 | < 1000 | +++ (≥350) | ++ (≥100 and <200)
11 | C=CCOC(=O)N1[C@H](C(=O)O)[C@@H](C(C)(C)C)[C@H](OCc2cc(C(F)(F)F)cnc2OC)[C@@H]1c1ccccc1 [Example 90, (2S,3R,4S,5S)-3-tert-butyl-4-{[2-methoxy-5-(trifluoromethyl)pyridin-3-yl]methoxy}-5-phenyl-1-{[(prop-2-en-1-yl)oxy]carbonyl}pyrrolidine-2-carboxylic acid] | 1000 to 10000 | 1000 to 10000 | +++ (≥350) | + (<100)
12 | COc1ncc(C(F)(F)F)cc1CO[C@H]1[C@H](C(C)(C)C)[C@@H](C(=O)O)N(C(=O)[C@H]2CCCCO2)[C@H]1c1ccccc1 [Example 91, (2S,3R,4S,5S)-3-tert-butyl-4-{[2-methoxy-5-(trifluoromethyl)pyridin-3-yl]methoxy}-1-[(2R)-oxane-2-carbonyl]-5-phenylpyrrolidine-2-carboxylic acid] | 1000 to 10000 | 1000 to 10000 | +++ (≥350) | ++ (≥100 and <200)
13 | COc1ncc(C(F)(F)F)cc1CO[C@H]1[C@H](C(C)(C)C)[C@@H](C(=O)O)N(C(=O)OC(C)C)[C@H]1c1ccccc1C1CC1 [Example 92, (2S,3R,4S,5S)-3-tert-butyl-5-(2-cyclopropylphenyl)-4-{[2-methoxy-5-(trifluoromethyl)pyridin-3-yl]methoxy}-1-{[(propan-2-yl)oxy]carbonyl}pyrrolidine-2-carboxylic acid] | 1000 to 10000 | 1000 to 10000 | +++ (≥350) | ++ (≥100 and <200)
14 | COc1ncc(C2CCC2)cc1CO[C@H]1[C@H](C(C)(C)C)[C@@H](C(=O)O)N(C(=O)OC(C)C)[C@H]1c1ccccc1C(C)C [Example 93, (2S,3R,4S,5S)-3-tert-butyl-4-[(5-cyclobutyl-2-methoxypyridin-3-yl)methoxy]-1-{[(propan-2-yl)oxy]carbonyl}-5-[2-(propan-2-yl)phenyl]pyrrolidine-2-carboxylic acid] | 1000 to 10000 | 1000 to 10000 | +++ (≥350) | ++ (≥100 and <200)
15 | COc1ccc(C(F)(F)F)cc1CO[C@@H]1[C@H](C(C)(C)C)[C@@H](C(=O)O)N(C(=O)OC(C)C)[C@H]1c1cccnc1OC(C)C [Example 94, (2S,3R,4R,5S)-3-tert-butyl-4-{[2-methoxy-5-(trifluoromethyl)phenyl]methoxy}-1-{[(propan-2-yl)oxy]carbonyl}-5-{2-[(propan-2-yl)oxy]pyridin-3-yl}pyrrolidine-2-carboxylic acid] | > 10000 | < 1000 | + (<150) | + (<100)
16 | COc1ncc(C2CCC2)cc1CO[C@H]1[C@H](C(C)(C)C)[C@@H](C(=O)O)N(C(=O)OC(C)C)[C@H]1c1cccnc1OC(C)C [Example 95, (2S,3R,4S,5S)-3-tert-butyl-4-[(5-cyclobutyl-2-methoxypyridin-3-yl)methoxy]-1-{[(propan-2-yl)oxy]carbonyl}-5-{2-[(propan-2-yl)oxy]pyridin-3-yl}pyrrolidine-2-carboxylic acid] | 1000 to 10000 | < 1000 | +++ (≥350) | ++ (≥100 and <200)
17 | COc1ncc(C(F)(F)F)cc1CO[C@H]1[C@H](C(C)(C)C)[C@@H](C(=O)O)N(C(=O)[C@@H]2CCCCO2)[C@H]1c1ccccc1C(C)C [Example 96, (2S,3R,4S,5S)-3-tert-butyl-4-{[2-methoxy-5-(trifluoromethyl)pyridin-3-yl]methoxy}-1-[(2S)-oxane-2-carbonyl]-5-[2-(propan-2-yl)phenyl]pyrrolidine-2-carboxylic acid] | < 1000 | < 1000 | +++ (≥350) | +++ (≥200)
